Numbers after ± are expanded uncertainties.
Conditions: 298.15 K; 101.33 kPa; Liquid

Compound | mass density
CCCCCC[n+]1ccc2ccccc2c1.N#C[S-] [2-hexylisoquinolinium thiocyanate] | 1081.34 ± 1.2 kg/m3
CCCCCCCC[n+]1ccc2ccccc2c1.N#C[S-] [2-octylisoquinolinium thiocyanate] | 1061.69 ± 1.2 kg/m3

From the NIST ThermoML archive (doi:10.1016/j.fluid.2015.05.003)
